Key:
[1] = tested on: SARS-CoV-2 spike protein, S1 subunit; assay type: binding; settings: pH 7.4
[2] = tested on: SARS-CoV-2 RBD; settings: cited from earlier work

Substance | SPR angle shift of ACE2/spike protein binding [1] | affinity compared with full-length ACE2 binding to RBD [2]
ACE2 | 0.147±0.009 degrees | –
residues 21–43 of the human ACE2 α 1-helix | – | comparable to that of the full-length ACE2 binding to RBD

— PMC9797021 (ACS applied bio materials, 2022)
